These results are taken from patent US7585871B2, “Phenanthridine carbonyl phenols” (Wyeth, priority 2004, dated 2009).

The melting point is the temperature of the solid-liquid transition. By IC50 is commonly meant the midpoint of a concentration-inhibition curve.

For one series, the target named is T1, human ERα (Homo sapiens, UniProt P03372).
T1 construct: expressed in transfected cells; host or cells: HAECT-1 cells (immortalized human aortic endothelial cells) infected with Ad5-wt-hERα adenovirus
T1 sequence (P03372 1-595): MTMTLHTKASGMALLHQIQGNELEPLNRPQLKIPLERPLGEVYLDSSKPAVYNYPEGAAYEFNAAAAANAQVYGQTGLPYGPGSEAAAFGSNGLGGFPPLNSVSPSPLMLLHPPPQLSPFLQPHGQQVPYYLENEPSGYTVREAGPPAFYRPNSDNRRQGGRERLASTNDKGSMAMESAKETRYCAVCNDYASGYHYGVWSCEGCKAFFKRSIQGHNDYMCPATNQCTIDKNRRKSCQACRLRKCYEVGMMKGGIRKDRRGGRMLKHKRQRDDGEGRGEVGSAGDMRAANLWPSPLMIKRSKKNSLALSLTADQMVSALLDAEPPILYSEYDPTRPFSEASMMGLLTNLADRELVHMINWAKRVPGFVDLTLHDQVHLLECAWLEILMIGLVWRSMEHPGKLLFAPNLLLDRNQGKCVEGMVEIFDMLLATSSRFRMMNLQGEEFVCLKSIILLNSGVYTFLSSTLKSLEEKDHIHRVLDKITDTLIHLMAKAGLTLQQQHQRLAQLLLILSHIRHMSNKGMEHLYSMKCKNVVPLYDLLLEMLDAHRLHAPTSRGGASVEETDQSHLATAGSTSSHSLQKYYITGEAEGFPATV
Description: IL-6 luciferase (IL6-luc) assay in ERα infected HAECT-1 cells. Format: cell-based. The note with it: for IC50: ERα infected HAECT-1 cells, IL-1β, Ad5-IL-6(1250 bp).Luc virus, 15-20 h; for IL6-luc (% E2): efficacy relative to E2, value in parentheses after the IC50. As for the experimental part: After four hours, cells were washed with EBM-BSA and incubated overnight in the same medium. Following overnight incubation, cells were washed with EBM-BSA and infected for 2 hours with 6 ml of a 1:10 dilution of Ad5-3x(NFκB).Luc virus (Adenovirus luciferase expression vector driven by 3 repeats of the MHC NFκb site 5′ to the thymidine kinase promoter) in EBM-BSA. After two hours, cells were washed and incubated at 34° C. for 1 hour. […] Control (no ER infection) cells were processed as above without Ad5-wt-hERα virus infection.
ERα infected HAECT-1 cells or control cells were thawed, diluted 42× in warm EBM-BSA, plated into 96-well plates at 0.1 ml/well and incubated for 4 h at 34° C. […] After 15-20 h, cells are lysed with 50 ul of Promega Cell Culture Lysis reagent for ˜5 min at room temp on shaker. After lysing, 15 ul of lysate is transferred to luminometer plates for luciferase determination. […] Creatine kinase was determined from the rate of increase in A340 following addition of 100 uL of CK assay reagent (Sigma, cat. No 47-10) to the remainder of the cell lysate.
For IC50 and EC50 calculations, mean IL-6, luciferase or CK values versus log10 of the compound concentration were fitted to a four parameter logistic equation. The IC50/EC50 value, ‘Hill slope’, upper and lower limits of the curve were iteratively estimated.

As to `CC1c2ccccc2-c2ccc(F)cc2N1C(=O)c1ccc(O)cc1` (racemic) [Example 36, 4-[(3-fluoro-6-methylphenanthridin-5(6H)-yl)carbonyl]phenol], the melting point lay within 134.5 to 135 °C.
`C[C@H]1c2cc(F)ccc2-c2ccccc2N1C(=O)c1cc(O)ccc1Br` [Example 16, 4-bromo-3-{[(6S)-8-fluoro-6-methylphenanthridin-5(6H)-yl]carbonyl}phenol]: on human ERα, the IC50 stood at 832 nM and the “IL6-luc (% E2)” value came out at 91%.
Consider `C[C@@H]1c2cc(F)ccc2-c2ccccc2N1C(=O)c1ccc(O)cc1` [Example 1, 4-{[(6R)-8-fluoro-6-methylphenanthridin-5(6H)-yl]carbonyl}phenol], for which, at human ERα, half-maximal inhibition (IC50) was put at 5 nM and the “IL6-luc (% E2)” value is 100%.
`C[C@H]1c2ccccc2-c2ccc(F)cc2N1C(=O)c1ccc(O)cc1O` (single isomer, unassigned) [Example 41] came in with a melting point of 182 to 184 °C. Moreover, at human ERα, the IC50 stood at 272 nM and the “IL6-luc (% E2)” value was found to be 88%.
Consider `C[C@H]1c2cc(F)ccc2-c2ccccc2N1C(=O)c1cccc(O)c1` [Example 2, 3-{[(6S)-8-fluoro-6-methylphenanthridin-5(6H)-yl]carbonyl}phenol], for which, at human ERα, the IC50 is 38 nM and the “IL6-luc (% E2)” value worked out at 53%.
For `C[C@H]1c2cc(F)ccc2-c2ccccc2N1C(=O)c1ccc(O)cc1` [Example 3, 4-{[(6S)-8-fluoro-6-methylphenanthridin-5(6H)-yl]carbonyl}phenol] the same measures were 414 nM and 114%.
Turning to `C[C@@H]1c2ccccc2-c2ccc(F)cc2N1C(=O)c1cccc(O)c1` (single isomer, unassigned) [Example 34], on human ERα, the IC50 was found to be 11 nM and the “IL6-luc (% E2)” value is 188%.
As for `C[C@@H]1c2cc(F)ccc2-c2ccccc2N1C(=O)c1ccc(O)c(Br)c1` [Example 13, 2-bromo-4-{[(6R)-8-fluoro-6-methylphenanthridin-5(6H)-yl]carbonyl}phenol], at human ERα, the IC50 is 51 nM and the “IL6-luc (% E2)” value came out at 102%.
`CC1c2ccccc2-c2ccc(F)cc2N1C(=O)c1cccc(O)c1` (racemic) [Example 33, 3-[(3-fluoro-6-methylphenanthridin-5(6H)-yl)carbonyl]phenol] had a melting point of 163.9 to 165 °C.
Regarding `C[C@@H]1c2ccccc2-c2ccc(Cl)cc2N1C(=O)c1ccc(O)cc1O` [Example 31, 4-{[(6R)-3-chloro-6-methylphenanthridin-5(6H)-yl]carbonyl}benzene-1,3-diol], at human ERα, 3 nM corresponded to half-maximal inhibition (IC50) and the “IL6-luc (% E2)” value turned out to be 87%.
Compound `CC1c2ccccc2-c2ccc(Cl)cc2N1C(=O)c1ccc(O)cc1` (racemic) [Example 27, 4-[(3-chloro-6-methylphenanthridin-5(6H)-yl)carbonyl]phenol] displayed a melting point of 165 to 165.9 °C.
In turn, `C[C@H]1c2cc(F)ccc2-c2ccc(F)cc2N1C(=O)c1ccc(O)cc1` (single isomer, unassigned) [Example 44] came in with a melting point of 135 to 138 °C. On human ERα, the IC50 came to 130 nM and the “IL6-luc (% E2)” value is recorded as 132%.
For `CC[C@@H]1c2cc(F)ccc2-c2ccccc2N1C(=O)c1ccc(O)cc1` [Example 20, 4-{[(6R)-6-ethyl-8-fluorophenanthridin-5(6H)-yl]carbonyl}phenol] the same measures were 105 to 106 °C, 6 nM and 95%.
For the compound `C[C@@H]1c2cc(F)ccc2-c2ccccc2N1C(=O)c1ccc(O)cc1F` [Example 5, 3-fluoro-4-{[(6R)-8-fluoro-6-methylphenanthridin-5(6H)-yl]carbonyl}phenol], at human ERα, the IC50 was found to be 9 nM and the “IL6-luc (% E2)” value was 97%.
`CC[C@H]1c2cc(F)ccc2-c2ccccc2N1C(=O)c1ccc(O)cc1` [Example 19, 4-{[(6S)-6-ethyl-8-fluorophenanthridin-5(6H)-yl]carbonyl}phenol] displayed a melting point of 103 to 104 °C. For the same compound, on human ERα, the IC50 was 85 nM and the “IL6-luc (% E2)” value was found to be 88%.
On to `C[C@@H]1c2cc(F)ccc2-c2ccccc2N1C(=O)c1cc(O)ccc1F` [Example 7, 4-fluoro-3-{[(6R)-8-fluoro-6-methylphenanthridin-5(6H)-yl]carbonyl}phenol], for which, at human ERα, the IC50 is 263 nM and the “IL6-luc (% E2)” value came to 70%.
As for `COc1cc(C(=O)N2c3ccccc3-c3ccc(F)cc3[C@H]2C)ccc1O` [Example 17, 4-{[(6R)-8-fluoro-6-methylphenanthridin-5(6H)-yl]carbonyl}-2-methoxyphenol], on human ERα, the midpoint of inhibition, the IC50, lay at 364 nM and the “IL6-luc (% E2)” value was determined as 113%.
With `CC1c2ccccc2-c2ccc(Cl)cc2N1C(=O)c1cccc(O)c1` (racemic) [Example 24, 3-[(3-chloro-6-methylphenanthridin-5(6H)-yl)carbonyl]phenol], the melting point lay within 176.2 to 177.9 °C.
`C[C@H]1c2ccccc2-c2ccc(Cl)cc2N1C(=O)c1ccc(O)cc1` [Example 29, 4-{[(6S)-3-chloro-6-methylphenanthridin-5(6H)-yl]carbonyl}phenol]: the melting point fell in the range of 273.7 to 276 °C. Also, on human ERα, the IC50 stood at 1000 nM and the “IL6-luc (% E2)” value is 75%.
On to `C[C@@H]1c2cc(F)ccc2-c2ccccc2N1C(=O)c1cccc(O)c1` [Example 4, 3-{[(6R)-8-fluoro-6-methylphenanthridin-5(6H)-yl]carbonyl}phenol], for which the melting point was 162 °C. For the same compound, on human ERα, the IC50 was 47 nM and the “IL6-luc (% E2)” value stood at 102%.
With `C[C@H]1c2ccccc2-c2ccc(Cl)cc2N1C(=O)c1cccc(O)c1` [Example 26, 3-{[(6S)-3-chloro-6-methylphenanthridin-5(6H)-yl]carbonyl}phenol], at human ERα, the midpoint of inhibition, the IC50, lay at 377 nM and the “IL6-luc (% E2)” value amounted to 49%.
For the compound `C[C@@H]1c2cc(F)ccc2-c2ccccc2N1C(=O)c1cc(O)ccc1Br` [Example 15, 4-bromo-3-{[(6R)-8-fluoro-6-methylphenanthridin-5(6H)-yl]carbonyl}phenol], on human ERα, the IC50 was 301 nM and the “IL6-luc (% E2)” value stood at 76%.
Regarding `C[C@H]1c2ccccc2-c2ccc(Cl)cc2N1C(=O)c1ccc(O)cc1O` [Example 32, 4-{[(6S)-3-chloro-6-methylphenanthridin-5(6H)-yl]carbonyl}benzene-1,3-diol], on human ERα, 789 nM corresponded to half-maximal inhibition (IC50) and the “IL6-luc (% E2)” value was 125%.
Take `CCC1c2cc(F)ccc2-c2ccccc2N1C(=O)c1ccc(O)cc1F` (racemic) [Example 23, 4-[(6-ethyl-8-fluorophenanthridin-5(6H)-yl)carbonyl]-3-fluorophenol]: the melting point was in the range of 109 to 111 °C. Besides, on human ERα, the IC50 was 1 nM and the “IL6-luc (% E2)” value is 107%.
With `C[C@@H]1c2cc(F)ccc2-c2ccccc2N1C(=O)c1ccc(O)c(F)c1` [Example 9, 2-fluoro-4-{[(6R)-8-fluoro-6-methylphenanthridin-5(6H)-yl]carbonyl}phenol], on human ERα, it took 31 nM to reach half-maximal inhibition (IC50) and the “IL6-luc (% E2)” value is 81%.
In the case of `C[C@H]1c2cc(F)ccc2-c2ccccc2N1C(=O)c1ccc(O)c(F)c1` [Example 10, 2-fluoro-4-{[(6S)-8-fluoro-6-methylphenanthridin-5(6H)-yl]carbonyl}phenol], on human ERα, 1470 nM corresponded to half-maximal inhibition (IC50) and the “IL6-luc (% E2)” value came to 68%.
`C[C@H]1c2cc(F)ccc2-c2ccccc2N1C(=O)c1ccc(O)cc1F` [Example 6, 3-fluoro-4-{[(6S)-8-fluoro-6-methylphenanthridin-5(6H)-yl]carbonyl}phenol]: at human ERα, 403 nM corresponded to half-maximal inhibition (IC50) and the “IL6-luc (% E2)” value was 90%.
In turn, `C[C@@H]1c2cc(F)ccc2-c2ccc(F)cc2N1C(=O)c1ccc(O)cc1` (single isomer, unassigned) [Example 43] returned a melting point of 138 to 140 °C. In addition, on human ERα, half-maximal inhibition (IC50) required 1.5 nM and the “IL6-luc (% E2)” value was 147%.
For `C[C@H]1c2ccccc2-c2ccc(F)cc2N1C(=O)c1ccc(O)cc1` (single isomer, unassigned) [Example 38], the melting point lay within 236.6 to 237.8 °C.
